The nature of data set [1]: Partition coefficient, experimental (Log P). As to conditions: at pH 7.0. The data set is classed as physicochemical.
The next data set has as its target Serotonin-5-HT3 (Rattus norvegicus, UniProt P35563). As to the kind of experiment: In vitro receptor affinity, Serotonin-5-HT3. It is filed as binding. As to conditions: radioligand [3H]-GR 38032F, read-out: K1 (in vitro receptor affinity). As to the method: (§1) ln vitro affinity for neurotransmitter receptors: The binding data collected below were either obtained by CE REP (128, rue Danton, 92500 Rueil-Malmaison, France) or at Solvay Pharmaceuticals B.V. (C. J. van Houtenlaan 36, 1381 CP Weesp, The Netherlands), using well documented standard procedures. The affinities for dopamine-D2 and 5-HT1A receptors for instance, were measured as described by Creese (1997) and Gozlan (1983) respectively.

Another data set has as its target Histamine-H1 (Homo sapiens, UniProt P35367). As to the kind of experiment: In vitro receptor affinity, Histamine-H1. It is filed as binding. The conditions noted are these: radioligand [3H]-pyrilamine, read-out: K1 (in vitro receptor affinity). As to the method:
as §1

A further data set deals with T1, human D2 receptors (Homo sapiens, UniProt P14416).
T1 construct: expressed in transfected cells; host or cells: CHO
The data set can be described thus: In vitro functional antagonism at D2 receptors, adenylate cyclase in CHO cell-lines. It is filed as cell-based. The conditions noted are these: CHO cell-lines expressing cloned receptor; read-out: Antagonism human D2 receptors, pA2 (converted). As to the method:
In vitro (ant)agonistic activity at human D2 receptors and 5-HT1A receptors was measured according to the methods described by Solomon (1974) and Weiss (1985) respectively, on the formation of adenylate cyclase in CHO cell-lines expressing these cloned receptors.

In another data set the target is Serotonin-5-HT2A (Homo sapiens, UniProt P28223). The data set can be described thus: In vitro receptor affinity, Serotonin-5-HT2A. The data set is classed as binding. As to conditions: radioligand [3H]-ketanserin, read-out: K1 (in vitro receptor affinity). As to the method: as §1
The test system of data set [2] is Apomorphine-induced climbing behaviour in mice. The data set can be described thus: Antagonism of apomorphine-induced climbing behaviour in mice. The data set is classed as in vivo. As to conditions: Mus musculus, po, read-out: Antagon. apomorphine ind. climbing: ED50. As for the experimental part:
(§2) For oral (p.o.) administration: to the desired quantity (0.5-5 mg) of the solid test compound in a glass tube, some glass beads were added and the solid was milled by vortexing for 2 minutes. After addition of 1 ml of a solution of 1% methylcellulose in water and 2% (v/v) of Poloxamer 188 (Lutrol F68), the compound was suspended by vortexing for 10 minutes. The pH was adjusted to 7. Remaining particles in the suspension were further suspended by using an ultrasonic bath.
(§3) Lower lip retraction, an in vivo animal model for serotonin 5-HT1A receptor agonistic activity, was measured according to the method described by Berendsen (1989); Apomorphine-induced climbing behaviour in mice, an in vivo animal model for dopamine-D2 receptor antagonistic activity, was determined according to the method described by Costall (1978).

The target in the next data set is μ-opiate (Rattus norvegicus, UniProt P33535). As to the kind of experiment: In vitro receptor affinity, μ-opiate. It is filed as binding. As to conditions: radioligand [3H]-DAMGO, read-out: K1 (in vitro receptor affinity). As to the method: as §1
Another data set concerns the target α1-adrenergic. The data set can be described thus: In vitro receptor affinity, α1-adrenergic. It is filed as binding. The conditions noted are these: rat, radioligand [3H]-prazosin; read-out: K1 (in vitro receptor affinity). As for the experimental part:
as §1

The target in a further data set is Serotonin-5-HT4 (Homo sapiens, UniProt Q13639). The data set can be described thus: In vitro receptor affinity, Serotonin-5-HT4. The data set is classed as binding. The conditions noted are these: radioligand [3H]-GR 113808, read-out: K1 (in vitro receptor affinity). As to the method: as §1
The target of a further data set is Muscarine-M5 (Homo sapiens, UniProt P08912). The data set can be described thus: In vitro receptor affinity, Muscarine-M5. The data set is classed as binding. As to conditions: radioligand [3H]-4-DAMP, read-out: K1 (in vitro receptor affinity). As for the experimental part:
as §1

In another data set the target is Dopamine-D4 (Homo sapiens, UniProt P21917). As to the kind of experiment: In vitro receptor affinity, Dopamine-D4. The data set is classed as binding. The conditions noted are these: radioligand [3H]-spiperone, read-out: K1 (in vitro receptor affinity). As for the experimental part: as §1
The next data set has as its target Serotonin-5-HT7 (Homo sapiens, UniProt P34969). As to the kind of experiment: In vitro receptor affinity, Serotonin-5-HT7. It is filed as binding. The conditions noted are these: radioligand [3H]-LSD, read-out: K1 (in vitro receptor affinity). As to the method:
as §1

The target in another data set is α2-adrenergic. The data set can be described thus: In vitro receptor affinity, α2-adrenergic. The conditions noted are these: rat, radioligand [3H]-RX 821002; read-out: K1 (in vitro receptor affinity). It is filed as binding. As for the experimental part:
as §1

A further data set addresses T2, Serotonin-5-HT1A (Homo sapiens, UniProt P08908).
T2 sequence (P08908 1-422): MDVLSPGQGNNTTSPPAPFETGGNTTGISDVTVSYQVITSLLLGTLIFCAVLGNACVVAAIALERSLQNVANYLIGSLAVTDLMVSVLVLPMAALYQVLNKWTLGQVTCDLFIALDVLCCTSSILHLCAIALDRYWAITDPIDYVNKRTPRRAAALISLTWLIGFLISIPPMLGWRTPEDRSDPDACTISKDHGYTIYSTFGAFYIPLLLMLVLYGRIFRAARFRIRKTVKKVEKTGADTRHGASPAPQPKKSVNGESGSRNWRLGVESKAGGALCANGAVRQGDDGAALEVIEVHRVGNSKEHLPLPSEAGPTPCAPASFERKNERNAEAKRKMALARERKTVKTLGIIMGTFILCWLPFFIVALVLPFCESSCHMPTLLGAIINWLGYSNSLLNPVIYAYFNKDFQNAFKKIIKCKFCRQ
As to the kind of experiment: In vitro receptor affinity, Serotonin-5-HT1A. It is filed as binding. As to conditions: radioligand [3H]-8-OH-DPAT, read-out: K1 (in vitro receptor affinity). As to the method: as §1

A further data set deals with Serotonin-5-HT1D. The data set can be described thus: In vitro receptor affinity, Serotonin-5-HT1D. It is filed as binding. As to conditions: bovine, radioligand [3H]-serotonin; read-out: K1 (in vitro receptor affinity). As to the method: as §1
The nature of data set [3]: Volume of distribution measured in mice. The data set is classed as in vivo. The conditions noted are these: for VD in liters per kilograms: measured in mice; for Vd: plasma, calculated for an average person weighing 70 kg from mouse VD. As for the experimental part:
The volume of distribution (VD), also known as the ‘apparent volume of distribution’, is a pharmacological term used to quantify the distribution of a drug throughout the body after oral or parenteral dosing. It is defined as the volume in which the amount of drug would need to be uniformly distributed in to produce the observed concentration (Widmark, 1919).
The volume of distribution of SLV313 and its pyridine N-oxide was measured in mice, using the standard procedure well known in the art:
The volume of distribution is not a physiological volume, but rather the ratio between the total amount of drug in the body and its concentration in plasma. It is generally accepted that the volume of distribution is more or less the same across species, making it a parameter that, when measured in laboratory animals, has a high predictive value towards man.

The next data set has as its system Lower lip retraction. The data set can be described thus: Lower lip retraction. It is filed as in vivo. The conditions noted are these: po; read-out: Lower Lip Retraction: ED50. As to the method:
as §2, §3

The target of another data set is Serotonin-5-HT2C (Homo sapiens, UniProt P28335). The data set can be described thus: In vitro receptor affinity, Serotonin-5-HT2C. The conditions noted are these: radioligand [125I]-DOI, read-out: K1 (in vitro receptor affinity). It is filed as binding. As for the experimental part: as §1
Serotonin-5-HT2C, sequence (P28335 33-458): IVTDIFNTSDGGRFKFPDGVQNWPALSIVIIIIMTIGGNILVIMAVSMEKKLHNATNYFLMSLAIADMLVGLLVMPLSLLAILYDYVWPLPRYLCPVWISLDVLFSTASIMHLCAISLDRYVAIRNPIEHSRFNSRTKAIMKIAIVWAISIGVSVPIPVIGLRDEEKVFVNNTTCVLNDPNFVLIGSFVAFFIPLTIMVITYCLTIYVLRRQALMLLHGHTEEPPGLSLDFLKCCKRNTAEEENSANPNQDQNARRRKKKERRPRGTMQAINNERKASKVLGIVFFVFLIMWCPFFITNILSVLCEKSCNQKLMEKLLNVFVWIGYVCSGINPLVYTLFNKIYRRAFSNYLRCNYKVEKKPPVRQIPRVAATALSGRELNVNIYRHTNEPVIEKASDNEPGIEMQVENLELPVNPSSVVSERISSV

Serotonin-5-HT2A, sequence (P28223 whole entry): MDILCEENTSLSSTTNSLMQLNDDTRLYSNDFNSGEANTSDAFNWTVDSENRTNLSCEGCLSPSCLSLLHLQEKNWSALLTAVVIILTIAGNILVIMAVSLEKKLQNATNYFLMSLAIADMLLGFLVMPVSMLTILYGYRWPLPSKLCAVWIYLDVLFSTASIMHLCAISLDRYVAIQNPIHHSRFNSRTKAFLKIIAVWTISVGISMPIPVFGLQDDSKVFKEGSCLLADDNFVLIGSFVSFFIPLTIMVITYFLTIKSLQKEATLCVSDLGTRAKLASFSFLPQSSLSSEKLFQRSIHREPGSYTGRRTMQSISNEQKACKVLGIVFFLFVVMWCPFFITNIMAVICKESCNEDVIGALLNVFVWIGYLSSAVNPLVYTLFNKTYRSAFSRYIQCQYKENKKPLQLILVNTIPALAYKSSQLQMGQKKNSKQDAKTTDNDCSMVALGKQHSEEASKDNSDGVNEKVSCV
μ-opiate, sequence (P33535 whole entry): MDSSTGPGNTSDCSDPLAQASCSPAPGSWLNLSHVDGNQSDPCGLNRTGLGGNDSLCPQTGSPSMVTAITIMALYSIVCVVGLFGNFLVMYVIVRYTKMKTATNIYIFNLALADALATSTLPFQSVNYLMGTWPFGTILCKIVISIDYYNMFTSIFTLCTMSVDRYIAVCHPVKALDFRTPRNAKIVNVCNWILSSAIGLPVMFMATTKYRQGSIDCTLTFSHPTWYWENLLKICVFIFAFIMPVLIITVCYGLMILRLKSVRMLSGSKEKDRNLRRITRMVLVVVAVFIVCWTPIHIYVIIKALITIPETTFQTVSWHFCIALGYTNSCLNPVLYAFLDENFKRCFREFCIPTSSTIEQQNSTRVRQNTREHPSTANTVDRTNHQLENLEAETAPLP
Dopamine-D4, sequence (P21917 whole entry): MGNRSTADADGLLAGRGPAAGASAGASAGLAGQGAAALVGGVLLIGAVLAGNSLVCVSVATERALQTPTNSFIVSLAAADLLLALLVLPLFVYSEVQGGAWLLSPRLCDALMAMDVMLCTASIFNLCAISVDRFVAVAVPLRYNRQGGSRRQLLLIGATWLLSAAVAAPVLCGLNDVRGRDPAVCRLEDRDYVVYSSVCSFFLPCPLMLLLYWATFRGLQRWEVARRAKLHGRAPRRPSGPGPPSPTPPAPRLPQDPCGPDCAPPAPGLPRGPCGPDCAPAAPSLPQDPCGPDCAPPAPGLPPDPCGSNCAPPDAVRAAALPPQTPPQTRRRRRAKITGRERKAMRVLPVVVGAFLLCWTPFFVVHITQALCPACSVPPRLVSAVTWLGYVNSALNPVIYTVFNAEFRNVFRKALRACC
Serotonin-5-HT7, sequence (P34969 whole entry): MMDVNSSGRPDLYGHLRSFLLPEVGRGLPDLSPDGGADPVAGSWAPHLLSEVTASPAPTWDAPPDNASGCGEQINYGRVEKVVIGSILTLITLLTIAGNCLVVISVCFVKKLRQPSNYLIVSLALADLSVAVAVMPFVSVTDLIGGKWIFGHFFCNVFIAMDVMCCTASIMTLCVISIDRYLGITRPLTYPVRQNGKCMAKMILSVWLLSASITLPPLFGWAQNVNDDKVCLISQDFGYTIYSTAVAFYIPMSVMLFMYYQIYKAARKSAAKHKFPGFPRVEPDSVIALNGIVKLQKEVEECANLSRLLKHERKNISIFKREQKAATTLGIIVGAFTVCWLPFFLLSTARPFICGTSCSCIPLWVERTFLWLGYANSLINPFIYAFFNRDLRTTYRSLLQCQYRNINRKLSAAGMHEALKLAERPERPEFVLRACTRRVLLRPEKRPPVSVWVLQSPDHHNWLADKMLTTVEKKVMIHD
Muscarine-M5, sequence (P08912 whole entry): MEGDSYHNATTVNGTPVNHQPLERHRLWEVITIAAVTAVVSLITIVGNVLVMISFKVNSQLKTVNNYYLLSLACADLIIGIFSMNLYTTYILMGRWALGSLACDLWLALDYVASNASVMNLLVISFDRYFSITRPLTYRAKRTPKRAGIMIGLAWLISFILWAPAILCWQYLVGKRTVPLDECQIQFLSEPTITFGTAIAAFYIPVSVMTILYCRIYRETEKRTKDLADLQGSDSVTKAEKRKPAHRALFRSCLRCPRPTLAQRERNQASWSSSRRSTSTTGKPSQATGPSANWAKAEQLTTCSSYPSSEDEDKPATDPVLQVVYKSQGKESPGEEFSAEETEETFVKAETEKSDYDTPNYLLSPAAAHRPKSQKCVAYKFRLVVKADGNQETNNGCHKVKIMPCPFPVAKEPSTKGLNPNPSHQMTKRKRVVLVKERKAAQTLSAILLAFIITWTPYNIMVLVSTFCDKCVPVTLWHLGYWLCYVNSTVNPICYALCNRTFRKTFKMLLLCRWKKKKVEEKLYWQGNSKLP
Serotonin-5-HT3, sequence (P35563 24-483): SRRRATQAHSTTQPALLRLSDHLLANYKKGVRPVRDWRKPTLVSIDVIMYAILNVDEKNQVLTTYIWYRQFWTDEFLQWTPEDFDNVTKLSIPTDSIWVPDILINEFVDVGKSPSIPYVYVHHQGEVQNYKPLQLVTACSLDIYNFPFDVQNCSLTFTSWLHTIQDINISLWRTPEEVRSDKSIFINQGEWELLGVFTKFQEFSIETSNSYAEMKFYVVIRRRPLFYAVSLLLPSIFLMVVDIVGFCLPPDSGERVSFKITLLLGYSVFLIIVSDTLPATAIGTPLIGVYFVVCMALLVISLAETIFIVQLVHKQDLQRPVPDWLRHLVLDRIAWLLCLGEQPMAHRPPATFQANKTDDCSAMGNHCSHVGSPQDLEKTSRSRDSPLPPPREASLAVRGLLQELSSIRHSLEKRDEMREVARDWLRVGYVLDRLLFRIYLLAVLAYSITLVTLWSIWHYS
T1 sequence (P14416 whole entry): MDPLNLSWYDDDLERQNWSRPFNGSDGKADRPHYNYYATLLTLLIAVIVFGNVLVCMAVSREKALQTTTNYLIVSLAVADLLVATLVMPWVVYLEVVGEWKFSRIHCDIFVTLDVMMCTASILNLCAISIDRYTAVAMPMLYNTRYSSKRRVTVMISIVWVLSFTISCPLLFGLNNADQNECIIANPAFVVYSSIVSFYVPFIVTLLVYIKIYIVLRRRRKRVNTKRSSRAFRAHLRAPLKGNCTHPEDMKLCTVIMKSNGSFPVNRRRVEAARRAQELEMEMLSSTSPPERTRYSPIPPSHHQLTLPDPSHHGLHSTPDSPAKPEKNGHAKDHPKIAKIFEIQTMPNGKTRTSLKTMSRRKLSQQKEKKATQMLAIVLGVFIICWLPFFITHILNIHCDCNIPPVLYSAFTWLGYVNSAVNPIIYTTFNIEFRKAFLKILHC
Histamine-H1, sequence (P35367 whole entry): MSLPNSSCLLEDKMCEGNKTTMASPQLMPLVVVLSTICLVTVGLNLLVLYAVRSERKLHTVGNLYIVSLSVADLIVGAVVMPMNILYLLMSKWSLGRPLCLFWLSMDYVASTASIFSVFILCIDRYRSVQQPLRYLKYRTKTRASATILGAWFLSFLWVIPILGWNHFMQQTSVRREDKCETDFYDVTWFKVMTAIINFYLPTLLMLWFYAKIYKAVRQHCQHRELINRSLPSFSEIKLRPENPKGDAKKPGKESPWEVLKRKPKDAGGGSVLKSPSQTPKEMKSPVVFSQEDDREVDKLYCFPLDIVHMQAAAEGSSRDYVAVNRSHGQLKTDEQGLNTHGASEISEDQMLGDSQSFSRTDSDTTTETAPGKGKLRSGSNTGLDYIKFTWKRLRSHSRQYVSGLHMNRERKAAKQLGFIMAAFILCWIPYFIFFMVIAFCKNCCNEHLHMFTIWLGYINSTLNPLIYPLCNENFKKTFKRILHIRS
Serotonin-5-HT4, sequence (Q13639 whole entry): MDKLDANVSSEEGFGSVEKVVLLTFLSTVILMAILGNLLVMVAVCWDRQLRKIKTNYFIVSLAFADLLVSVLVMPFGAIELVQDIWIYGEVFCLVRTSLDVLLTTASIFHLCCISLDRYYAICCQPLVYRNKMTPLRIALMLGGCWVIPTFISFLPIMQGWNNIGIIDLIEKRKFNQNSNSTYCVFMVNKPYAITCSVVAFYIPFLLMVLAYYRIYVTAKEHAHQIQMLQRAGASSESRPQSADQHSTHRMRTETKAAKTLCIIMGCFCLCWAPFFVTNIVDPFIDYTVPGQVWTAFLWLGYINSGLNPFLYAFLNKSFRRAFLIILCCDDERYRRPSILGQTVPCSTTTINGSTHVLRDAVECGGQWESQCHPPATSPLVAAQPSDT

Consider `Fc1ccc(-c2cncc(CN3CCN(c4cccc5c4OCCO5)CC3)c2)cc1` [SLV313, 3-[[4-(2,3-dihydro-1,4-benzodioxin-5-yl)-1-piperazinyl]methyl]-5-(4-fluorophenyl)pyridine, reference compound], for which the logP in [1] turned out to be 3.6. Besides, the Ki on Serotonin-5-HT3 was greater than 1 µM; at Histamine-H1 it was greater than 1 µM; at Serotonin-5-HT2A, 0.25 µM; on μ-opiate it was 8 µM; on α1-adrenergic, 0.5 µM; at Serotonin-5-HT4, greater than 1 µM. Moreover, the Ki on Muscarine-M5 is greater than 1 µM; at Dopamine-D4, 0.01 µM; at Serotonin-5-HT7 it was 0.063 µM; at α2-adrenergic it was greater than 1 µM; on Serotonin-5-HT1A, 0.0008 µM; on Serotonin-5-HT1D, 13 µM. Further, at Serotonin-5-HT2C, the Ki is greater than 1 µM. Moreover, on human D2 receptors, the Kb was 0.000501 µM. Moreover, the ED50 in [2] came to 0.5 mg/kg; in the data set with Lower lip retraction, 2.3 mg/kg. In addition, the “VD in liters per kilograms” value in [3] is recorded as 5 liters per kilograms. Besides, the Vd in [3] is 350 L.
Molecule `[O-][n+]1cc(CN2CCN(c3cccc4c3OCCO4)CC2)cc(-c2ccc(F)cc2)c1` [pyridine N-oxide, 1-(2,3-dihydro-1,4-benzodioxin-5-yl)-4-[[5-(4-fluorophenyl)-1-oxido-3-pyridinyl]methyl]-piperazine] came in with a logP in data set [1] of 2.6. Further, the Ki at Serotonin-5-HT3 is greater than 10 µM; on Histamine-H1 it was greater than 10 µM; at Serotonin-5-HT2A it was 0.5 µM; on μ-opiate, 3.2 µM; on α1-adrenergic, 1 µM; on Serotonin-5-HT4, greater than 10 µM. For the same molecule, the Ki was greater than 10 µM on Muscarine-M5; 0.02 µM on Dopamine-D4; 0.1 µM on Serotonin-5-HT7; 0.63 µM at α2-adrenergic; 0.0004 µM on Serotonin-5-HT1A; 4 µM on Serotonin-5-HT1D. Besides, the Ki at Serotonin-5-HT2C was greater than 10 µM. Also, at human D2 receptors, the Kb was 0.000631 µM. Besides, the results for the ED50 (in [2]; with Lower lip retraction) were 0.9 mg/kg and 3 mg/kg, respectively. The “VD in liters per kilograms” value in data set [3] is reported as 1 liters per kilograms. In addition, the Vd in data set [3] was 70 L.

One may read the logP as the decadic logarithm of the partition coefficient of the neutral form, usually between octanol and water. Higher therefore signals higher lipophilicity. Usually ED50 stands for the dose that gives a 50% effect, or the effect in half of the subjects. As usually defined, the Vd is a proportionality between amount in the body and measured concentration, not a real space.

Values taken from US20070275977A1, “N-OXIDES OF PYRIDYLMETHYL -PIPERAZINE AND -PIPERIDINE DERIVATIVES” (priority 2006, published 2007).
